Patent publication US8431564B2 (Merck Sharp & Dohme B.V., priority 2009, dated 2013)

Target: T1, human FSH receptor (Homo sapiens, UniProt P23945)
T1 construct: expressed in transfected cells; host or cells: CHO (Chinese Hamster Ovary) cells, stably transfected, cotransfected with CRE-luciferase reporter
T1 sequence (P23945 18-695): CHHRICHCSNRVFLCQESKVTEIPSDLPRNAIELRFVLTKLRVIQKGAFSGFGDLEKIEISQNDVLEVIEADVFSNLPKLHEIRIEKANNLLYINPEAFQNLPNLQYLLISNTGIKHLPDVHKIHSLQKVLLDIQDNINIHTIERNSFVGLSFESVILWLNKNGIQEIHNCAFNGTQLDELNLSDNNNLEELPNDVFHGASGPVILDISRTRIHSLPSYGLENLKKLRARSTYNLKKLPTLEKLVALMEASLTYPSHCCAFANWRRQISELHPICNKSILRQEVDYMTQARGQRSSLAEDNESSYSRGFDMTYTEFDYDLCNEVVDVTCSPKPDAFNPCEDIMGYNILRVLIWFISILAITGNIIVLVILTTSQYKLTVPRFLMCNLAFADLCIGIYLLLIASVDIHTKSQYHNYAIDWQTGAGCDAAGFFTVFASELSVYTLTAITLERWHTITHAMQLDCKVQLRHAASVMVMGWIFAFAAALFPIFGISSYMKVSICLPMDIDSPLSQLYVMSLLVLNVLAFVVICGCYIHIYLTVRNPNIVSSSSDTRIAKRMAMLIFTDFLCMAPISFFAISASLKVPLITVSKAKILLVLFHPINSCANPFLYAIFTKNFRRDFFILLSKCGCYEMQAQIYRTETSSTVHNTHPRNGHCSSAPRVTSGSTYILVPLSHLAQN
Experiment: Agonistic activity at the human FSH receptor expressed in CHO cells (CRE-luciferase reporter)
Format: cell-based
Details: CHO cells stably transfected with human FSH receptor and CRE/luciferase reporter; 4 hours incubation; pEC50 is -log EC50; read-out: hFSHRago (CHO luc) pEC50 (converted)
From the text: The term EC50 means the concentration of the test compound that elicits half-maximal (50%) stimulation compared to the compound's maximally attainable effect. pEC50 is the negative log of EC50. The values can be determined e.g. in a cell line transfected with a FSH receptor gene and cotransfected with a cAMP responsive element/promoter directing the expression of a reporter gene. For the determination a software program such as MathIQ (version 2.0, ID Business Solutions Limited) can be used.
Agonistic activity of the compounds at the human FSH receptor was determined in Chinese Hamster Ovary (CHO) cells stably transfected with the human FSH receptor and cotransfected with a cAMP responsive element (CRE)/promotor directing the expression of a firefly luciferase reporter gene. Binding of the compounds to the Gs protein-coupled FSH receptor will result in an increase of cAMP, which in turn will induce an increased transactivation of the luciferase reporter. Cells (7,500 cells/well of a 384 well plate) were incubated in Dulbecco' minimal essential F12 modified medium (Invitrogen), supplemented with 1 μg/ml bovine insulin, 5 μg/ml human apo-transferrin, 80 U/ml penicillin G and 80 μg/ml streptomycin with the test compounds (concentration between 0.0316 nM and 10.0 μM) in duplicate in a humidified atmosphere (95%) at 5-7% CO2 and 37° C. The final concentration of DMSO was 1%. After 4 hours of incubation, plates were allowed to adjust to room temperature for 1 hour. Then, Luclite (PerkinElmer) solution was added to the wells and cells were allowed to lyse for at least 1 hour at room temperature. Subsequently, luciferase activity was measured in a luminescence counter. The signal is expressed as counts per second (cps). The EC50 (concentration of the test compound that elicits half-maximal (50%) luciferase stimulation compared to the compound's maximally attainable effect) and efficacy values (maximal effect of the test compound as percentage of the maximal effect of recombinant human FSH) of the compounds were determined using the software program MathIQ (version 2.0, ID Business Solutions Limited). pEC50 data (pEC50 is −log EC50) are indicated at the synthesis examples.

Q: Which EC50 does the source give for `COc1cc2c(cc1-c1cccc(F)n1)-c1c(-c3cncs3)c3c(n1CC2)C(=O)N(C(C)(C)C)CCOC3` [Compound 11k, 9-tert-butyl-2-(6-fluoropyridin-2-yl)-3-methoxy-14-(1,3-thiazol-5-yl)-5,6,10,11-tetrahydro-9H-[1,4]oxazocino[7′,6′:4,5]pyrrolo[2,1-a]isoquinolin-8(13H)-one] here?
A: 13.8 nM

Q: For `COc1cc2c(cc1-c1cncs1)-c1c(-c3cncs3)c3c(n1CC2)C(=O)N(C(C)(C)C)CCOC3` [Compound 11l, 9-tert-butyl-3-methoxy-2,14-di-1,3-thiazol-5-yl-5,6,10,11-tetrahydro-9H-[1,4]oxazocino[7′,6′:4,5]pyrrolo[2,1-a]isoquinolin-8(13H)-one], which EC50 is on record?
A: 12.6 nM

Q: How did the EC50 turn out when `COc1cc2c(cc1-c1cccnc1)-c1c(-c3cccs3)c3c(n1CC2)C(=O)N(C)C(C)(C)CC3` [Compound 12l, 9-methyl-2-pyidin3-yl-3-methoxy-10,10-dimethyl-13-(2-thienyl)-5,6,9,10,11,12-hexahydro-8H-azepino[4′,3′:4,5]pyrrolo[2,1-a]isoquinolin-8-one] was run?
A: 12 nM

Q: `COc1cc2c(cc1-c1cccnc1)-c1c(Br)c3c(n1CC2)C(=O)N(C(C)(C)C)CCC3` [Compound 13d, 9-tert-butyl-2-pyridin-3-yl-13-bromo-3-methoxy-5,6,9,10,11,12-hexahydro-8H-azepino[4′,3′:4,5]pyrrolo[2,1-a]isoquinolin-8-one] was tested. Which EC50 did it give?
A: 380 nM

Q: How did the EC50 turn out when `COc1cc2c(cc1-c1cccnc1)-c1c(-c3cccnc3)c3c(n1CC2)C(=O)N(C(C)(C)C)CCC3` [Compound 13e, 9-tert-butyl-2,13-di-(pyridin3-yl)-3-methoxy-5,6,9,10,11,12-hexahydro-8H-azepino[4′,3′:4,5]pyrrolo[2,1-a]isoquinolin-8-one] was run?
A: 42.7 nM

Q: For `COc1cc2c(cc1-c1cccnc1)-c1c(-c3ncco3)c3c(n1CC2)C(=O)N(C(C)(C)C)CCC3` [Compound 13f], which EC50 is on record?
A: 15.8 nM

Q: Which EC50 does the source give for `COc1cc2c(cc1OC(C)C)-c1c(-c3cccs3)c3c(n1CC2)C(=O)N(C(C)C)CCNC3` [Compound 14e, 9-isopropyl-3-methoxy-2-isopropoxy-14-(2-thienyl)-5,6,10,11,12,13-hexahydro[1,4]diazocino[6′,7′:4,5]pyrrolo[2,1-a]isoquinolin-8(9H)-one] here?
A: 93.3 nM

Q: How did the EC50 turn out when `COc1cc2c(cc1OC(C)C)-c1c(-c3cccs3)c3c(n1CC2)C(=O)N(C(C)C)CCN(C(C)=O)C3` [Compound 14f, 12-acetyl-9-isopropyl-3-methoxy-2-isopropoxy-14-(2-thienyl)-5,6,10,11,12,13-hexahydro[1,4]diazocino[6′,7′:4,5]pyrrolo[2,1-a]isoquinolin-8(9H)-one] was run?
A: 35.5 nM

Q: With `CCC(=O)N1CCN(C(C)C)C(=O)c2c(c(-c3cccs3)c3n2CCc2cc(OC)c(OC(C)C)cc2-3)C1` [Compound 14g, 12-propanoyl-9-isopropyl-3-methoxy-2-isopropoxy-14-(2-thienyl)-5,6,10,11,12,13-hexahydro[1,4]diazocino[6′,7′:4,5]pyrrolo[2,1-a]isoquinolin-8(9H)-one] as the molecule, how does the EC50 read?
A: 219 nM

Q: Which EC50 does the source give for `COc1cc2c(cc1OC(C)C)-c1c(-c3cccs3)c3c(n1CC2)C(=O)N(C(C)(C)C)C3` [Compound 15f, 9-tert-butyl-2-isopropoxy-3-methoxy-11-(2-thienyl)-5,6,9,10-tetrahydro-8H-pyrrolo[3′,4′:4,5]pyrrolo[2,1-a]isoquinolin-8-one] here?
A: 617 nM

Q: With `COc1cc2c(cc1-c1cccnc1)-c1c(-c3cncs3)c3c(n1CC2)C(=O)N(C(C)(C)C)CCCCC3` [Compound 16n, 2-pyridin-3-yl-9-tert-butyl-3-methoxy-15-(1,3-thiazol-5-yl)-5,6,9,10,11,12,13,14-octahydro-8H-azonino[4′,3′:4,5]pyrrolo[2,1-a]isoquinolin-8-one] as the molecule, how does the EC50 read?
A: 16.2 nM

Q: With `COc1cc2c(cc1-c1cccnc1)-c1c(-c3cscn3)c3c(n1CC2)C(=O)N(C(C)(C)C)CCCCC3` [Compound 16t, 2-pyridin-3-yl-9-tert-butyl-3-methoxy-15-(1,3-thiazol-4-yl)-5,6,9,10,11,12,13,14-octahydro-8H-azonino[4′,3′:4,5]pyrrolo[2,1-a]isoquinolin-8-one] as the molecule, how does the EC50 read?
A: 29.5 nM

Q: How did the EC50 turn out when `COc1cc2c(cc1Br)-c1c(-c3cncs3)c3c(n1CC2)C(=O)N(C(C)(C)C)CCCC3` [Compound 17i, 9-tert-butyl-3-methoxy-2-bromo-14-(1,3-thiazol-5-yl)-5,6,10,11,12,13-hexahydroazocino[4′,3′:4,5]pyrrolo[2,1-a]isoquinolin-8(9H)-one] was run?
A: 4.68 nM

Q: With `COc1cc2c(cc1-c1ncco1)-c1c(-c3cncs3)c3c(n1CC2)C(=O)N(C(C)(C)C)CCCC3` [Compound 17j, 9-tert-butyl-3-methoxy-2-(1,3-oxazol-2-yl)-14-(1,3-thiazol-5-yl)-5,6,10,11,12,13-hexahydroazocino[4′,3′:4,5]pyrrolo[2,1-a]isoquinolin-8(9H)-one] as the molecule, how does the EC50 read?
A: 0.977 nM

Q: For `COc1cc2c(cc1-c1cccnc1)-c1c(-c3cncs3)c3c(n1CC2)C(=O)N(C(C)(C)C)CCCC3` [Compound 17k, 9-tert-butyl-3-methoxy-2-pyridin-3-yl-14-(1,3-thiazol-5-yl)-5,6,10,11,12,13-hexahydroazocino[4′,3′:4,5]pyrrolo[2,1-a]isoquinolin-8(9H)-one], which EC50 is on record?
A: 0.355 nM

Q: Which EC50 does the source give for `COc1cc2c(cc1OC(C)C)-c1c(Br)c3c(n1CC2)C(=O)N(C(C)(C)C)CCOC3` [Compound 18d, 9-tert-butyl-3-methoxy-2-isopropoxy-14-bromo-5,6,10,11-tetrahydro-9H-[1,4]oxazocino[7′,6′:4,5]pyrrolo[2,1-a]isoquinolin-8(13H)-one] here?
A: 126 nM

Q: For `COc1cc2c(cc1OC(C)C)-c1c(-c3cccnc3)c3c(n1CC2)C(=O)N(C(C)(C)C)CCOC3` [Compound 18e, 9-tert-butyl-3-methoxy-2-isopropoxy-14-pyridin-3-yl-5,6,10,11-tetrahydro-9H-[1,4]oxazocino[7′,6′:4,5]pyrrolo[2,1-a]isoquinolin-8(13H)-one], which EC50 is on record?
A: 63.1 nM

Q: With `COc1cc2c(cc1OC(C)C)-c1c(-c3ccncc3)c3c(n1CC2)C(=O)N(C(C)(C)C)CCOC3` [Compound 18f, 9-tert-butyl-3-methoxy-2-isopropoxy-14-pyridin-4-yl-5,6,10,11-tetrahydro-9H-[1,4]oxazocino[7′,6′:4,5]pyrrolo[2,1-a]isoquinolin-8(13H)-one] as the molecule, how does the EC50 read?
A: 47.9 nM

Q: How did the EC50 turn out when `COc1cc2c(cc1OC(C)C)-c1c(-c3ccc(F)cc3)c3c(n1CC2)C(=O)N(C(C)(C)C)CCOC3` [Compound 18g] was run?
A: 20 nM

Q: `COc1cc2c(cc1-c1cccnc1)-c1c(Cl)c3c(n1CC2)C(=O)N(C(C)(C)C)CCCC3` [Compound 19f, 9-tert-butyl-3-methoxy-2-pyridin-3-yl-14-chloro-5,6,10,11,12,13-hexahydroazocino[4′,3′:4,5]pyrrolo[2,1-a]isoquinolin-8(9H)-one] was tested. Which EC50 did it give?
A: 12.3 nM

Q: With `COc1cc2c(cc1N)-c1c(-c3cccs3)c3c(n1CC2)C(=O)N(C(C)(C)C)CCCC3` [Compound 20b, 9-tert-butyl-14-(thien-2-yl)-2-amino-3-methoxy-5,6,10,11,12,13-hexahydroazocino[4′,3′:4,5]pyrrolo[2,1-a]isoquinolin-8(9H)-one] as the molecule, how does the EC50 read?
A: 39.8 nM

Q: How did the EC50 turn out when `COc1cc2c(cc1-n1cc(CCO)nn1)-c1c(-c3cccs3)c3c(n1CC2)C(=O)N(C(C)(C)C)CCCC3` [Compound 20d, 9-tert-butyl-14-(thien-2-yl)-2-(4-(2-hydroxyethyl)-1H-1,2,3-triazol-1-yl)-3-methoxy-5,6,10,11,12,13-hexahydroazocino[4′,3′:4,5]pyrrolo[2,1-a]isoquinolin-8(9H)-one] was run?
A: 0.589 nM
